Experimental findings from US11628198B2, “Methods for prevention and treatment of acute renal injury” (Cornell University, priority 2008, dated 2023) are described below.

Holding throughout (format): in vivo, rat
The subject of test [1] is CIN in glycerol-induced rhabdomyolysis animal model. The experiment in a line: CIN in glycerol-induced rhabdomyolysis model, Experiment 3. As for the experimental part:
(§1) SD rats with body weight of 300-400 grams were dehydrated for 24 h followed by i.m. injection with 25% glycerol solution (v/v) at the dose of 10 ml/kg. Twenty-four hours (24 h) later, the rats were grouped and subjected to contrast induced nephropathy study protocol. Eighteen SD rats with body weight of 350-400 g were randomized into three groups with the doses, dosing schedules and study protocol presented in FIG. 27. The effects of SS-31 on ARI can be examined by comparing the renal functions in animals from group A with that from group B.
Renal function: Renal function was assessed by determining serum and urinary creatinine using Jiancheng Cr kit (Nanjing, P.R.C) at baseline, 24 h after dehydration and 48 h post the contrast dye administration. The creatinine clearance was calculated based on the Scr, Ucr and Urinary volume. Urinary protein concentration was determined by Bradford Protein Assay kit (Sigma, U.S.A.). Samples were analyzed by students t-test and differences were considered significant at p<0.05.

Test [2] deals with CCl4 induced chronic nephrotoxicity. The experiment in a line: CCl4 chronic kidney injury model: renal histology. Conditions: 10 mg/kg s.c. 5 days a week for 7 wks. An excerpt: Study design and experimental protocol: In this model, SD rats with body weight of 250 g were fed with 0.35 g/L phenobarbital solution (Luminal water) for two weeks, then divided into three groups and treated as follows.
At the end of fifth week, four rats from each group were sacrificed for liver histopathological sectioning and fibrosis examination. In the end of 7th week, all remaining rats in each group were sacrificed, and kidney and liver tissues were harvest for histopathological sectioning and examination.
Renal Histology: Kidneys were fixed in 10% neutral-buffered formalin and embedded in paraffin wax. Three micron sections were stained with hematoxylin-eosin (H&E) and analyzed by light microscopy by a certified pathologist.

Test [3] has as its system ARI caused by ischemia-reperfusion (I/R). Description: I/R model: renal morphologic examination (H&E, PAS). The note with it: 45 min ischemia and 24 h reperfusion. The procedure:
Sprague Dawley rats (250˜300 g) were assigned to four groups: (1) sham surgery group without I/R; (2) I/R+saline vehicle treatment; (3) I/R+SS-20 treatment; (4) I/R+SS-31 treatment. Each experimental group consisted of 8 rats. SS-20 and SS-31 (3 mg/kg, dissolved in saline) were administered to rats 30 min before ischemia and immediately before onset of reperfusion. The control rats were given saline alone on the same schedule.
Rats were anesthetized with a mixture of ketamine (90 mg/kg, i.p.) and xylazine (4 mg/kg, i.p.). The left renal vascular pedicle was occluded temporarily using a micro-clamp for 30 or 45 min. At the end of the ischemic period, reperfusion was established by removing of the clamp. At that time, the contralateral right kidney was removed. After 24 h reperfusion, animals were sacrificed and blood samples were obtained by cardiac puncture. Renal function was determined by blood urea nitrogen (BUN) and serum creatinine (BioAssay Systems DIUR-500 and DICT-500).
Renal Morphologic Examination: Kidneys were fixed in 10% neutral-buffered formalin and embedded in paraffin wax. Three micron sections were stained with hematoxylin-eosin (H&E) and periodic acid-Schiff (PAS) and analyzed by light microscopy. Lesions were scored using the following criteria: [1] mitosis and necrosis of individual cells; [2] necrosis of all cells in adjacent proximal convoluted tubules with survival of surrounding tubules; [3] necrosis confined to the distal third of the proximal convoluted tubule with a band of necrosis extending across the inner cortex; and [4] necrosis affecting all three segments of the proximal convoluted tubule.

Test [4] concerns ARI caused by ureteral obstruction (UUO). The experiment in a line: 14-day UUO model: immunohistochemistry and TUNEL. As for the experimental part: Sprague-Dawley rats underwent unilateral ureteral ligation (UUO) with 4-0 silk suture through a midline abdominal incision under sterile conditions. Ureteral obstruction was carried out by ligating the left ureter at the end of lower ureter, just above the ureterovesical junction.
SS-31 (1 mg/kg or 3 mg/kg; n=8) was administered intraperitoneally, one day prior to UUO and continuing for 14 days. A separate group of animals was given saline, as a vehicle control (n=16).
Immunohistochemical Analysis: Immunohistochemical staining for macrophages was carried out using a monoclonal antibody to ED-1 (Serotec) as previously described. Macrophages were counted in 10 high-power fields (×400) by two different independent investigators in a blinded fashion. The TUNEL assay was performed as described in Example 1. The presence of fibroblasts was examined using immunohistochemistry, as described in Example 1. The antibody utilized was DAKO #S100-A4 (1:100 dilution). The S100-A4 antigen is also known as FSP-1 (fibroblast specific protein). Antigen was retrieved by incubating cells with Proteinase K for 20 min in an oven. The remaining immunoperoxidase protocol was carried out according to routine procedures. Staining for S100-A4 was found in spindle-shaped interstitial cells, and also in cells which were round, and were identified as inflammatory cells by the pathologist. Only spindle-shaped cells were included in the counts. […] 8-OH dG staining was carried using Proteinase K for antigen retrieval. The antibody used was from the Japan Institute Control of Aging, and was used at a dilution of 1:200-1:500.

Test [5] concerns CIN in glycerol-induced rhabdomyolysis animal model. The experiment in a line: CIN in glycerol-induced rhabdomyolysis model, Experiment 2. As for the experimental part: as §1, with “hours” for “hours (24 h)”, “Sixteen” for “Eighteen”, “300-350” for “350-400”, “23.” for “27.”, “B. Samples were analyzed by Student's t-test and differences were considered significant at p<0.05.” for “B.”
Renal function: Renal function was assessed by determining serum and urinary creatinine using Jiancheng Cr kit (Nanjing, P.R.C) at baseline, 24 h after dehydration and 48 h post the contrast dye administration. The creatinine clearance was calculated based on the Scr, Ucr and urinary volume. Urinary protein concentration was determined by Bradford Protein Assay kit (Sigma, St. Louis, Mo.).

Regarding D-Arg-2′6′Dmt-Lys-Phe-NH2 [SS-31], the “PAS staining of kidney” value in test [1] (glycerin, dye) was “intact brush borders, normal glomeruli and minimum protein cast in the tubular cells”. The “urine protein level over time” value in test [1] (vs vehicle group) is given as “recovered faster than the vehicle group”. In test [2], the “renal histology (H&E)” value is “no observable histopathological change”. In test [3], the histopathological score entry is given as “significantly improved histopathological score”; the “tubular cell injury (H&E, PAS)” value is “protected brush border and prevented necrosis in the proximal tubules”. For the same substance, in test [4] (1 mg/kg), the “fibroblast infiltration (FSP-1) in the OK” value is 43.4 % of control; the “tubular apoptosis (TUNEL)” value was 5.1±0.5 cells per HPF; the “tubular proliferation (PCNA), increase” value worked out at 2 fold. Further, in test [4] (3 mg/kg), the “fibroblast infiltration (FSP-1) in the OK” value was 28.0 % of the untreated OK; the “renal tubular apoptosis (TUNEL)” value is reported as 3.0±0.3 apoptotic cells/HPF; the “tubular proliferation (PCNA), increase” value was 3.5 fold. The “macrophage infiltration into the OK (ED-1)” value in test [4] (1 and 3 mg/kg) is “significantly decreased macrophage infiltration”. Besides, the “8-OH dG positive cells/HPF” value in test [4] (obstructed kidney) is on record as “significantly reduced”. For the same substance, the “reduction of creatinine clearance” value in test [5] (48 h post dye) was 13%. The “24 h urinary protein level” value in test [5] (T0 (24 h post glycerin), no peptide yet) is 50.2 ± 8.6 mg. Moreover, in test [5] (T1 (48 h post glycerin and 24 hrs post dye)), the “24 h urinary protein level” value was 39.5 ± 3.5 mg. In addition, in test [5] (Tb (baseline), no peptide yet), the “24 h urinary protein level” value was found to be 15.5 ± 1.5 mg. In test [5] (glycerin, dye), the “PAS staining of kidney” value is “intact brush borders, normal glomeruli and minimum protein cast in the tubular cells”.
